In patent US8193213B2, “Spermicidal and/or antifungal composition and methods of using the same” (priority 2003, dated 2012):
Marks after values point to notes of the source that are not given here.

Key:
adult male Swiss mice = experiment: Antispermatogenic screen: single gavage dose to male mice, testes weight and Spermatogenic Index at 72 h; type: in vivo; settings: day 3 (72 h)
Protocol: The compounds of the invention were tested in mice for their effects on spermatogenesis three days after a single oral dose by the procedure described in Cook et al (1995) below. Compounds active in this test have been shown also to be anti-fertility compounds.
Compounds were screened for antispermatogenic activity by dosing male mice on day 1 with a gavage dose of control vehicle, positive control (compound 1) or compound of the invention. At 72 h after dosing, animals were killed and the testes were excised, trimmed of fat, and weighed. One testis was examined histologically and rated for spermatogenic potential using the Spermatogenic Index (J. M. Whitsett, P. F. Noden, J. Cherry and A. D. Lawton, J. Reprod. Fertil., 72, 277 (1984), which is a semiquantitative estimate of the sperm producing ability of the testes The index is based on histological appearance of the spermatogenic cells in the seminiferous tubules. A scale of 1 to 6 is used with 5 to 6 being the normal status. A second assessment was based on the weight of the testes.
Tables 1 and 2 show pertinent biological results in terms of the change in testes weight (TW) and spermatogenic index (SI) relative to a control containing only the administration vehicle, but no indenopyridine. In Tables 1 and 2, R^3 and R^4 refer to structures Ib, where R^3 is in the para position; R^1 is ethyl; R^2 is methyl; and R^5 is hydrogen.

mice = experiment: Lethargy and sedation in mice; type: in vivo
Description: Lethargy and sedation are obviously undesirable side effects in contraceptive agents. In contrast to the lethargy and sedation observed with compound 1, the compounds of the present invention produce minimal lethargy.

spermatogenesis = settings: oral administration to animals; cited from earlier work
testes = experiment: Antispermatogenic activity after a single oral dose to rats; type: in vivo; settings: single oral dose of 30 mg/kg
Description: Spermatids became pycnotic, occasionally forming multinucleated associations. Sertoli cells appear to be cytologically normal. It appears that compound 1 targets spermatids or the Sertoli cell associated with these spermatids because histologic changes are observed in these spermatids first.

[1] = Table 2, 30 mg/kg single gavage dose, vehicle 1% Tween20 in water
[2] = racemic compounds, 30 mg/kg single gavage dose, vehicle 90% water, 7% Tween20, 3% ethanol
[3] = racemic compounds, 3 mg/kg single gavage dose, vehicle 90% water, 7% Tween20, 3% ethanol
[4] = racemic compounds, 10 mg/kg single gavage dose, vehicle 90% water, 7% Tween20, 3% ethanol
[5] = racemic compounds, 1 mg/kg single gavage dose, vehicle 90% water, 7% Tween20, 3% ethanol

| Structure (SMILES) | SI change (%) (Spermatogenic Index, % change from vehicle control) (adult male Swiss mice; [1]) [%*] | TW change (%) (testes weight, % change from vehicle control) (adult male Swiss mice; [1]) [%*] | SI change (%) (Spermatogenic Index, % change from vehicle control) (adult male Swiss mice; [2]) [%*] | TW change (%) (testes weight, % change from vehicle control) (adult male Swiss mice; [2]) | Lethargy (mice; 30 mg/kg given subcutaneously) | Lethargy and sedation (mice; oral dose of 30 mg/kg) | Inhibition of spermatogenesis (spermatogenesis) | Testis histology (testes) | Effect on weights of the testes (testes; within 24 h) | SI change (%) (Spermatogenic Index, % change from vehicle control) (adult male Swiss mice; [3]) [%*] | TW change (%) (testes weight, % change from vehicle control) (adult male Swiss mice; [3]) | SI change (%) (Spermatogenic Index, % change from vehicle control) (adult male Swiss mice; [4]) [%*] | TW change (%) (testes weight, % change from vehicle control) (adult male Swiss mice; [4]) | melting point | SI change (%) (Spermatogenic Index, % change from vehicle control) (adult male Swiss mice; [5]) [%*] | TW change (%) (testes weight, % change from vehicle control) (adult male Swiss mice; [5]) |
| --- | --- | --- | --- | --- | --- | --- | --- | --- | --- | --- | --- | --- | --- | --- | --- | --- |
| CCN1CC[C@@H]2[C@@H](c3ccc(C)cc3)c3cc(C)ccc3[C@@H]2C1 (racemic) [Compound 1, (4aRS,5SR,9bRS)-2-ethyl-2,3,4,4a,5,9b-hexahydro-7-methyl-5-(4-methylphenyl)-1H-indeno[1,2-c]pyridine] | −61 | −24 | −55 | 19%* | extreme lethargy | some lethargy and sedation | reversible inhibition of spermatogenesis | Degenerative changes in the seminiferous tubules | drastically reducing the weights of the testes |  |  |  |  |  |  |  |
| CCN1CC[C@@H]2[C@@H](c3ccc(C(=O)O)cc3)c3cc(C)c(Br)cc3[C@@H]2C1.Cl (racemic) [Compound 19, (4aRS,5SR,9bRS)-2-Ethyl-8-Bromo-7-Methyl-2,3,4,4a,5,9b-Hexahydro-5-(4-carboxylphenyl)-1H-Indeno[1,2-c]pyridine Hydrochloride] |  |  | −72 | −39%* |  |  |  |  |  | −69 | −8% | −71 | −28%* | 169.6 to 170.3 °C |  |  |
| CCN1CC[C@@H]2[C@@H](c3ccc(C(=O)OC)cc3)c3cc(C)c(I)cc3[C@@H]2C1.Cl (racemic) [Compound 18, (4aRS,5SR,9bRS)-2-Ethyl-2,3,4,4a,5,9b-hexahydro-8-iodo-7-methyl-5-(4-carbomethoxyphenyl)-1H-indeno[1,2-c]pyridine Hydrochloride] |  |  |  |  |  |  |  |  |  | −69 | −27%* | −74 | −36%* | > 190 °C (dec.) | −57 | −16 |
| CCN1CC[C@@H]2[C@@H](c3ccc(C(=O)O)cc3)c3cc(C)ccc3[C@@H]2C1.Cl (racemic) [Compound 2, (4aRS,5SR,9bRS)-2-Ethyl-2,3,4,4a,5,9b-hexahydro-7-methyl-5-(4-carboxyphenyl)-1H-indeno[1,2-c]pyridine Hydrochloride] |  |  | −52 | −7% |  |  |  |  |  |  |  | −24 | 2% | 280 °C (dec.) |  |  |
